Each compound was assayed against T1, Human CYP8B1 (Homo sapiens, UniProt Q9UNU6) (assay: Human CYP8B1 Liver Microsome Assay). Conditions: Human CYP8B1 IC50, human liver microsomes; substrate 7a-hydroxy-4-cholesten-3-one, NADPH; RapidFire MS detection of 7α,12α-dihydroxy-4-cholesten-3-one.
T1 sequence (Q9UNU6 1-501): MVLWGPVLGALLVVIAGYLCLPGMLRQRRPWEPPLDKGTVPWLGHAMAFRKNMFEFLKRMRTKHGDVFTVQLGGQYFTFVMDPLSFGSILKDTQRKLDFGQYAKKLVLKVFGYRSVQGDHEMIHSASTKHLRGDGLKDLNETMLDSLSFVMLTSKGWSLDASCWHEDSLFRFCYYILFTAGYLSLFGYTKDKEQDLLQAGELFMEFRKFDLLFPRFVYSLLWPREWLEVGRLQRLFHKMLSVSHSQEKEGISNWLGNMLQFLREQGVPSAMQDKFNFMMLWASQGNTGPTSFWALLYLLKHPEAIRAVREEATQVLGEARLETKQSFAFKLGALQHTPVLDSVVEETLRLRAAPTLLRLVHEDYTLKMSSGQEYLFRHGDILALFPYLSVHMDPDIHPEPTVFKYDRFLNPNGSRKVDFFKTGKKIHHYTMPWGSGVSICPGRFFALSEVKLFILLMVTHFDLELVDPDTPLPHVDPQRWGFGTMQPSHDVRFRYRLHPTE
`Cc1nc2c(F)cc(F)cc2c(N2CC[C@H](C(=O)N3CCn4c(nnc4C(F)(F)F)C3)[C@H](C)C2)c1C#N` [Example 10, 6,8-difluoro-2-methyl-4-[(3S,4S)-3-methyl-4-{[3-(trifluoromethyl)-5,6-dihydro[1,2,4]triazolo[4,3-a]pyrazin-7(8H)-yl]carbonyl}piperidin-1-yl]quinoline-3-carbonitrile] gave an IC50 of 2.8 nM.
`N#Cc1cnc2ccc(Cl)cc2c1N1CC[C@@H](C(=O)N2CCn3c(nnc3C(F)(F)F)C2)[C@@H](C2CC2)C1` [Example 76a, 6-chloro-4-[(3R,4R)-3-cyclopropyl-4-{[3-(trifluoromethyl)-5,6-dihydro[1,2,4]triazolo[4,3-a]pyrazin-7(8H)-yl]carbonyl}piperidin-1-yl]quinoline-3-carbonitrile] showed an IC50 of 1320 nM.
For `C[C@@H]1CN(c2c(C#N)cnc3cc(OC4CC4)ccc23)CC[C@@H]1C(=O)N1CCn2c(nnc2C(F)(F)F)C1` [Example 38, 7-(cyclopropyloxy)-4-[(3S,4S)-3-methyl-4-{[3-(trifluoromethyl)-5,6-dihydro[1,2,4]triazolo[4,3-a]pyrazin-7(8H)-yl]carbonyl}piperidin-1-yl]quinoline-3-carbonitrile], the IC50 was 0.3 nM.
`C[C@@H]1CN(c2c(C#N)cnc3cc(F)c(F)cc23)CC[C@@H]1C(=O)N1CCn2c(nnc2C(F)(F)F)C1` [Example 25, 6,7-difluoro-4-[(3S,4S)-3-methyl-4-{[3-(trifluoromethyl)-5,6-dihydro[1,2,4]triazolo[4,3-a]pyrazin-7(8H)-yl]carbonyl}piperidin-1-yl]quinoline-3-carbonitrile] was tested, and the IC50 was 0.36 nM.
`CC1CC(C(=O)N2CCn3c(nnc3C(F)(F)F)C2)CCN1c1c(C#N)cnc2ccc(Cl)cc12` (single isomer, unassigned) [Example 73b, 6-chloro-4-[(2R,4R) or (2S,4S)-2-methyl-4-{[3-(trifluoromethyl)-5,6-dihydro[1,2,4]triazolo[4,3-a]pyrazin-7(8H)-yl]carbonyl}piperidin-1-yl]quinoline-3-carbonitrile] was tested, and the IC50 was 15 nM.
In the case of `C=Cc1ccc2nc(C)c(C#N)c(N3CCC(C(=O)N4CCn5c(nnc5C(F)(F)F)C4)CC3)c2c1` [Example 54, 2-methyl-4-(4-(3-(trifluoromethyl)-5,6,7,8-tetrahydro-[1,2,4]triazolo[4,3-a]pyrazine-7-carbonyl)piperidin-1-yl)-6-vinylquinoline-3-carbonitrile], the IC50 is reported as 149 nM.
`N#Cc1cnc2ccc(Cl)cc2c1N1CCC(C(=O)N2CCn3cnnc3C2)CC1` [Example 110, 6-chloro-4-[4-(5,6-dihydro[1,2,4]triazolo[4,3-a]pyrazin-7(8H)-ylcarbonyl)piperidin-1-yl]quinoline-3-carbonitrile] was tested, and the IC50 was 181 nM.
Work on `CC1CC(C(=O)N2CCn3c(nnc3C(F)(F)F)C2)CCN1c1c(C#N)cnc2ccc(Cl)cc12` (single isomer, unassigned) [Example 73a, 6-chloro-4-[(2R,4R) or (2S,4S)-2-methyl-4-{[3-(trifluoromethyl)-5,6-dihydro[1,2,4]triazolo[4,3-a]pyrazin-7(8H)-yl]carbonyl}piperidin-1-yl]quinoline-3-carbonitrile] yielded an IC50 of 6.4 nM.
In the case of `COc1cccc2nc(C)c(C#N)c(N3CC[C@H](C(=O)N4CCn5c(nnc5C(F)(F)F)C4)[C@H](C)C3)c12` [Example 35, 5-methoxy-2-methyl-4-[(3S,4S)-3-methyl-4-{[3-(trifluoromethyl)-5,6-dihydro[1,2,4]triazolo[4,3-a]pyrazin-7(8H)-yl]carbonyl}piperidin-1-yl]quinoline-3-carbonitrile], the IC50 is reported as 1.4 nM.
Compound `Cc1nc2ccc(Cl)cc2c(N2CC[C@H](C(=O)N3CCc4c(n[nH]c4C(F)(F)F)C3)[C@H](C)C2)c1C#N` [Example 93, 6-chloro-2-methyl-4-[(3S,4S)-3-methyl-4-{[3-(trifluoromethyl)-2,4,5,7-tetrahydro-6H-pyrazolo[3,4-c]pyridin-6-yl]carbonyl}piperidin-1-yl]quinoline-3-carbonitrile] has an IC50 of 28 nM.
`COc1cc(Cl)cc2c(N3CC[C@H](C(=O)N4CCn5c(nnc5C(F)(F)F)C4)[C@H](C)C3)c(C#N)cnc12` [Example 18, 6-chloro-8-methoxy-4-[(3S,4S)-3-methyl-4-{[3-(trifluoromethyl)-5,6-dihydro[1,2,4]triazolo[4,3-a]pyrazin-7(8H)-yl]carbonyl}piperidin-1-yl]quinoline-3-carbonitrile] showed an IC50 of 0.53 nM.
`N#Cc1cnc2ccc(Cl)cc2c1C1CCC(C(=O)N2CCn3c(nnc3C(F)(F)F)C2)CC1` (mixture of isomers) [Example 124, 6-chloro-4-(4-{[3-(trifluoromethyl)-5,6-dihydro[1,2,4]triazolo[4,3-a]pyrazin-7(8H)-yl]carbonyl}cyclohexyl)quinoline-3-carbonitrile] showed an IC50 of 110 nM.
Work on `CCc1nnc2n1CCN(C(=O)C1CCN(c3c(C#N)cnc4ccc(Cl)cc34)CC1)C2` [Example 106, 6-chloro-4-{4-[(3-ethyl-5,6-dihydro[1,2,4]triazolo[4,3-a]pyrazin-7(8H)-yl)carbonyl]piperidin-1-yl}quinoline-3-carbonitrile] yielded an IC50 of 8.1 nM.
For `N#Cc1cnc2ccc(Cl)cc2c1N1CCC(C(=O)N2CCn3cncc3C2)CC1` [Example 105, 6-chloro-4-[4-(5,6-dihydroimidazo[1,5-a]pyrazin-7(8H)-ylcarbonyl)piperidin-1-yl]quinoline-3-carbonitrile], the IC50 was 878 nM.
Work on `N#Cc1cnc2ccc(Cl)cc2c1N1CCC(C(=O)N2CCc3c(C4CC4)n[nH]c3C2)CC1` [Example 107, 6-chloro-4-{4-[(3-cyclopropyl-1,4,5,7-tetrahydro-6H-pyrazolo[3,4-c]pyridin-6-yl)carbonyl]piperidin-1-yl}quinoline-3-carbonitrile] yielded an IC50 of 5.6 nM.
`COc1ccc2c(N3CC[C@H](C(=O)N4CCn5c(nnc5C(F)(F)F)C4)[C@H](C)C3)c(C#N)cnc2c1C` [Example 19, 7-methoxy-8-methyl-4-[(3S,4S)-3-methyl-4-{[3-(trifluoromethyl)-5,6-dihydro[1,2,4]triazolo[4,3-a]pyrazin-7(8H)-yl]carbonyl}piperidin-1-yl]quinoline-3-carbonitrile] was tested, and the IC50 was 0.2 nM.
`COc1ccc2c(N3CCC(C(=O)N4CCn5c(nnc5C(F)(F)F)C4)CC3)c(C#N)cnc2c1` [Example 44, 7-methoxy-4-(4-{[3-(trifluoromethyl)-5,6-dihydro[1,2,4]triazolo[4,3-a]pyrazin-7(8H)-yl]carbonyl}piperidin-1-yl)quinoline-3-carbonitrile] showed an IC50 of 32 nM.
`COc1ccc2c(N3CCC(C(=O)N4CCn5c(nnc5C(F)(F)F)C4)CC3)c(C#N)cnc2c1F` [Example 42, 8-fluoro-7-methoxy-4-(4-{[3-(trifluoromethyl)-5,6-dihydro[1,2,4]triazolo[4,3-a]pyrazin-7(8H)-yl]carbonyl}piperidin-1-yl)quinoline-3-carbonitrile] showed an IC50 of 49 nM.
`Cc1nc2cc(F)c(F)cc2c(N2CCC(C(=O)N3CCn4c(nnc4C(F)(F)F)C3)CC2)c1C#N` [Example 50, 6,7-difluoro-2-methyl-4-(4-(3-(trifluoromethyl)-5,6,7,8-tetrahydro-[1,2,4]triazolo[4,3-a]pyrazine-7-carbonyl)piperidin-1-yl)quinoline-3-carbonitrile] was tested, and the IC50 was 2260 nM.
In the case of `CC1CN(c2c(C#N)cnc3ccc(C(F)(F)F)cc23)CCC1C(=O)N1CCn2c(nnc2C(F)(F)F)C1` (stereo not shown) [Example 119, 4-(3-methyl-4-{[3-(trifluoromethyl)-5,6-dihydro[1,2,4]triazolo[4,3-a]pyrazin-7(8H)-yl]carbonyl}piperidin-1-yl)-6-(trifluoromethyl)quinoline-3-carbonitrile], the IC50 is reported as 1.2 nM.
`CC1CN(c2c(C#N)c(C(F)F)nc3ccc(Cl)cc23)CCC1C(=O)N1CCn2c(nnc2C(F)(F)F)C1` (stereo not shown) [Example 57, 6-chloro-2-(difluoromethyl)-4-(3-methyl-4-{[3-(trifluoromethyl)-5,6-dihydro[1,2,4]triazolo[4,3-a]pyrazin-7(8H)-yl]carbonyl}piperidin-1-yl)quinoline-3-carbonitrile] was tested, and the IC50 was 69 nM.
Compound `Cc1nc2ccc(C(F)F)cc2c(N2CCC(C(=O)N3CCn4c(nnc4C(F)(F)F)C3)CC2)c1C#N` [Example 55, 6-(difluoromethyl)-2-methyl-4-(4-(3-(trifluoromethyl)-5,6,7,8-tetrahydro-[1,2,4]triazolo[4,3-a]pyrazine-7-carbonyl)piperidin-1-yl)quinoline-3-carbonitrile] has an IC50 of 78 nM.
Work on `C[C@@H]1CN(c2c(C#N)cnc3cc(O)ccc23)CC[C@@H]1C(=O)N1CCn2c(nnc2C(F)(F)F)C1` [Example 5, 7-hydroxy-4-[(3S,4S)-3-methyl-4-{[3-(trifluoromethyl)-5,6-dihydro[1,2,4]triazolo[4,3-a]pyrazin-7(8H)-yl]carbonyl}piperidin-1-yl]quinoline-3-carbonitrile] yielded an IC50 of 1.4 nM.
With `C[C@@H]1CN(c2c(C#N)cnc3c(F)c(Cl)ccc23)CC[C@@H]1C(=O)N1CCn2c(nnc2C2CC2)C1` [Example 66, 7-chloro-4-{(3S,4S)-4-[(3-cyclopropyl-5,6-dihydro[1,2,4]triazolo[4,3-a]pyrazin-7(8H)-yl)carbonyl]-3-methylpiperidin-1-yl}-8-fluoroquinoline-3-carbonitrile] the IC50 was 0.51 nM.
Compound `COC(=O)c1nc2ccc(Cl)cc2c(N2CC[C@H](C(=O)N3CCn4c(nnc4C(F)(F)F)C3)[C@H](C)C2)c1C#N` [Example 59, methyl 6-chloro-3-cyano-4-[(3S,4S)-3-methyl-4-{[3-(trifluoromethyl)-5,6-dihydro[1,2,4]triazolo[4,3-a]pyrazin-7(8H)-yl]carbonyl}piperidin-1-yl]quinoline-2-carboxylate] has an IC50 of 18 nM.

Source: US10414774B2, “Compound useful for altering the levels of bile acids for the treatment of diabetes and cardiometabolc disease” (Merck Sharp & Dohme Corp., priority 2016, dated 2019)
